# Measurements as given in patent US8492391B2, “Substituted 6-(2-hydroxybenzylamino)purine derivatives, their use as medicaments and compositions containing these derivatives” (Univerzita Palackeho V Olomouci, priority 2009, dated 2013).
# Read-outs that look alike come from different tables or passages of the source.
# Columns and labels:
# [1] = tested on: HOS (human osteogenic sarcoma); assay: Calcein AM cytotoxicity assay, HOS; type: cell-based; conditions: read-out: Cytotoxic activity IC50 (μM) HOS
# Text: (§1) Cytotoxicity of the compounds is the major property determining their anticancer effect in vivo. One of the parameters used, as the basis for cytotoxicity assays, is the metabolic activity of viable cells. For example, a microtiter assay, which uses the Calcein AM, is now widely used to quantitate cell proliferation and cytotoxicity. For instance, this assay is used in drug screening programs and in chemosensitivity testing. Because only metabolically active cells cleave Calcein AM, these assays detect viable cells exclusively. The quantity of cleaved Calcein AM corresponds to the number of vital cells in the culture. We have been using the following cell lines: MCF7 (human breast adenocarcinoma), K562 (human chronic myelogenous leukaemia), HOS (human osteogenic sarcoma), HeLa (human cervical carcinoma), HL 60 (human promyelocytic leukaemia), G 361 (human malignant melanoma), CEM (human lymphoblastoid leukaemia). All cell lines were grown in DMEM medium (Gibco BRL) supplemented with 10% (v/v) fetal bovine serum and L-glutamine and maintained at 37° C. in a humidified atmosphere with 5% CO2. For cytotoxicity assays, 10^4 cells were seeded into each well of 96 well plate, allowed to stabilize for at least 2 h and then tested compounds were added at various concentrations ranging from 100 to 0.1 μM in triplicates. Three days after drug addition Calcein AM solution (Molecular Probes) was added and let to enter the cells for 1 hour. Fluorescence of viable cells was quantified using Fluoroskan Ascent (Microsystems).
# [2] = tested on: K562 (human chronic myelogenous leukaemia); assay: Calcein AM cytotoxicity assay, K562; type: cell-based; conditions: read-out: Cytotoxic activity IC50 (μM) K562
# Text: as §1
# CDK9/cyclin T = biological target: T1, CDK9/cyclin T (Homo sapiens, UniProt P50750); assay: CDK9/cyclin T kinase inhibition assay; type: biochemical; conditions: kinase inhibitory activity, 15 μM ATP, (YSPTSPS)3 peptide substrate
# T1 construct: made in house; host or cells: Sf9 insect cells, baculovirus co-infection
# T1 sequence (P50750 whole entry, species assumed): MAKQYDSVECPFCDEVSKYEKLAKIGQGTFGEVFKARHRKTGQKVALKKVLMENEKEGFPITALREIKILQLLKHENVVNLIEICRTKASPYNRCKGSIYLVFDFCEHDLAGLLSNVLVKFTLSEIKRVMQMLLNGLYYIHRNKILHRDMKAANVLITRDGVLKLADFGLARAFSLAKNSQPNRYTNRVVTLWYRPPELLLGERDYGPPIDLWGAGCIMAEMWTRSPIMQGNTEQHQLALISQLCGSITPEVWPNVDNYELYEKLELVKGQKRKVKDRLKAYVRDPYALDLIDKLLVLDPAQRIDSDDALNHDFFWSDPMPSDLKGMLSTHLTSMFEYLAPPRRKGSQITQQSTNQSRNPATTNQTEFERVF
# T1 sequence (O60563 whole entry partner, species assumed): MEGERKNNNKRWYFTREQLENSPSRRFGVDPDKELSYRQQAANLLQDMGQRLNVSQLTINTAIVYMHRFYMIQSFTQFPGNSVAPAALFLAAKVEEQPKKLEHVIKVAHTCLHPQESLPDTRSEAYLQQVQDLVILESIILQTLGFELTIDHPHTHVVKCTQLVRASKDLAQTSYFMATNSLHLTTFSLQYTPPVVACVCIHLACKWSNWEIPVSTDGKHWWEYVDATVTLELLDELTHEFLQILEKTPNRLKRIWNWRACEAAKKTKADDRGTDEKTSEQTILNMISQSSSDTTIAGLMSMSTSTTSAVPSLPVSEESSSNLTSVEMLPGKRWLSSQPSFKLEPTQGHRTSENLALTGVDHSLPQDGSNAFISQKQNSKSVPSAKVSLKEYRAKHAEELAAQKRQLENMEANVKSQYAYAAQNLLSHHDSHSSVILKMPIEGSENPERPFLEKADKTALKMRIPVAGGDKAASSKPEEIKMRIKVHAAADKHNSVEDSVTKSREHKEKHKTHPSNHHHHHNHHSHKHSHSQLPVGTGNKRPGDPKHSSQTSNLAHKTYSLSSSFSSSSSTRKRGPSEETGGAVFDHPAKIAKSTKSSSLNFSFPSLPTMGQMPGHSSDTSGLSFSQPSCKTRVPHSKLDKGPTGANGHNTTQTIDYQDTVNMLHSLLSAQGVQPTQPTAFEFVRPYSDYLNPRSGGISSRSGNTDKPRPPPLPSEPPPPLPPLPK
# Method: (§2) Selected compounds were tested for CDK1/cyclin B, CDK2/cyclin E, CDK5/p25, CDK7/cyclin H and CDK9/cyclin T inhibitory activity to determine the basic relationships between their structure and the inhibitory activity. Cdk/cyclin complexes were expressed in Sf9 cells co-infected with appropriate baculoviral construct. The cells were harvested 70 hours post infection in lysis buffer (50 mM Tris pH 7.4, 150 mM NaCl, 5 mM EDTA, 20 mM NaF, 1% Tween 20, protease inhibitors) for 30 min on ice and the soluble fraction was recovered by centrifugation at 14.000 g for […]. The protein extract was stored at −80° C. until use. The final point test system for kinase activity measurement was used to carry out experiments on the kinetics under linear conditions. […] ATP and tested compound in a final volume of 20 μl, all in reaction buffer: 50 mM Hepes pH 7.4, 10 mM MgCl2, 5 mM EGTA, 10 mM 2-glycerolphosphate, 1 mM NaF, 1 mM DTT and protease inhibitors. After 30 min, the incubations were stopped by adding 5% H3PO4 and then the proteins were separated by phosphocellulose binding. The measurement of kinase inhibition employed the digital imaging analyzer BAS 1800. The kinase activity was expressed as a percentage of maximum activity and the IC50 value was determined by graphic analysis. The kinase activity is expressed as a percentage of maximum activity (FIG. 1).
# CDK2/cyclin E = biological target: T2, CDK2/cyclin E (Homo sapiens, UniProt P24941); assay: CDK2/cyclin E kinase inhibition assay; type: biochemical; conditions: kinase inhibitory activity, 15 μM ATP, histone substrate
# T2 construct: made in house; host or cells: Sf9 insect cells, baculovirus co-infection
# Method: as §2
# [3] = tested on: MCF7 (human breast adenocarcinoma); assay: Calcein AM cytotoxicity assay, MCF7; type: cell-based; conditions: MCF7, read-out: Cytotoxic activity IC50 (μM) MCF7
# Text: as §1
# p53 = assay: p53-dependent transcription, β-galactosidase reporter in Arn8 cells; type: cell-based, human; set-up: key to p53 (effect): induction of p53 protein: ++: very strong; +: weak; −: no effect; conditions: for p53 (effect): induction of p53 protein: Arn8 cells stable transfected with a β-galactosidase reporter gene; for p53 (peak concentration in μM): Arn8 cells, concentration inducing maximum of β-galactosidase activity
# Text: Protein p53, accumulated in nuclei upon treatment by the compounds, then leads to trans-activation of natural cell cycle inhibitor p21^WAF1, further blocking the cell cycle. […] This allows qualitative as well as quantitative measurement of CDK inhibitors-induced p53 transcriptional activity via β-galactosidase assay. Then, the effect will be verified in treated cells by immunoblotting of proteins expressed under the control of p53. β-galactosidase activity of human melanoma cell line Arn8 was determined as described. […] Alternatively, β-galactosidase activity was quantified by measuring fluorescence of methylumbelliferyl-β-D-galactopyranoside cleavage product. Cell lines established from the human breast carcinoma (MCF-7) and the human melanoma (Arn8) cell lines were cultured in Dubecco's Modified Eagle Medium (DMEM) supplemented with 10% foetal bovine serum.
# Effects of prepared compounds on activation of p53 protein were analysed in human melanoma cell line Arn8. […] The total β-galactosidase activity in Arn8 cells was quantified using a fluorimetric assay.
IC50 (CDK9/cyclin T),IC50 (CDK2/cyclin E),SMILES,IC50 ([1]; Homo sapiens),IC50 ([2]; Homo sapiens),IC50 ([3]; Homo sapiens),other results
0.12 µM,0.25 µM,Cn1cnc2c(NCc3cc(F)ccc3O)nc(NC3CCC(N)CC3)nc21 (stereo not shown) [Compound 8],50 µM,64 µM,39 µM,–
0.02 µM,0.04 µM,CCC(CO)Nc1nc(NCc2cccc(OC)c2O)c2ncn(C(CC)CC)c2n1 (stereo not shown) [compound 237],–,–,–,–
0.18 µM,0.29 µM,Cn1cnc2c(NCc3cc(Cl)ccc3O)nc(NC3CCCCC3N)nc21 (stereo not shown) [Compound 1],65 µM,78 µM,43 µM,–
0.07 µM,0.1 µM,CCC(CO)Nc1nc(NCc2cc(OC)ccc2O)c2ncn(C(CC)CC)c2n1 (stereo not shown) [compound 240],–,–,–,–
0.007 µM,0.02 µM,CC(C)n1cnc2c(NCc3cc(Cl)ccc3O)nc(NCCC(C)(C)O)nc21 [Compound 83],–,–,–,–
0.18 µM,0.22 µM,COc1cccc(CNc2nc(NC3CCC(N)CC3)nc3c2ncn3C)c1O (stereo not shown) [Compound 32],–,–,–,–
0.08 µM,0.25 µM,CC(C)C(CO)Nc1nc(NCc2cc(Cl)ccc2O)c2ncn(C)c2n1 (stereo not shown) [Compound 4],–,–,–,–
0.1 µM,0.16 µM,CCn1cnc2c(NCc3cc(F)ccc3O)nc(NC3CCC(N)CC3)nc21 (stereo not shown) [Compound 51],40 µM,52 µM,32 µM,–
–,–,NC1CCCCC1Nc1nc(NCc2cc(F)ccc2O)c2ncn(Cc3ccccc3)c2n1 (stereo not shown) [Compound 186],–,–,–,IC50 [1]: 9.3 µM; IC50 [2]: 15.4 µM; IC50 [3]: 6.9 µM
0.04 µM,0.07 µM,CCC(CO)Nc1nc(NCc2cc(F)ccc2O)c2ncn(C(CC)CC)c2n1 (stereo not shown) [compound 228],6.8 µM,13.2 µM,4.6 µM,–
0.04 µM,–,CCC(CO)Nc1nc(NCc2cccc(O)c2O)c2ncn(C(C)C)c2n1 (stereo not shown) [Compound 113],8.4 µM,7.8 µM,4.5 µM,–
0.17 µM,0.3 µM,CCC(CO)Nc1nc(NCc2cc(F)ccc2O)c2ncn(C)c2n1 (stereo not shown) [Compound 9],53 µM,67 µM,42 µM,–
–,–,COc1ccc(O)c(CNc2nc(NC3CCCCC3N)nc3c2ncn3C(C)C)c1 (stereo not shown) [Compound 143],–,–,–,IC50 [2]: 13.1 µM; IC50 [3]: 5 µM
0.05 µM,0.12 µM,CCn1cnc2c(NCc3cc(C)ccc3O)nc(NC3CCCCC3N)nc21 (stereo not shown) [Compound 59],–,–,–,–
0.15 µM,0.26 µM,Cn1cnc2c(NCc3cc(F)ccc3O)nc(NC3CCCCC3N)nc21 (stereo not shown) [Compound 7],47 µM,61 µM,35 µM,–
0.07 µM,0.11 µM,CCn1cnc2c(NCc3cccc(OC)c3O)nc(NC3CCC(N)CC3)nc21 (stereo not shown) [Compound 70],–,–,–,–
0.04 µM,0.09 µM,CCC(CO)Nc1nc(NCc2ccc(OC)cc2O)c2ncn(C(C)C)c2n1 (stereo not shown) [Compound 139],–,–,–,–
0.09 µM,0.14 µM,CCn1cnc2c(NCc3cc(Cl)ccc3O)nc(NC3CCC(N)CC3)nc21 (stereo not shown) [Compound 48],–,–,–,–
–,–,NC1CCCCC1Nc1nc(NCc2cc(Cl)ccc2O)c2ncn(Cc3ccccc3)c2n1 (stereo not shown) [Compound 179],–,–,–,IC50 [1]: 10.2 µM; IC50 [2]: 19.5 µM; IC50 [3]: 8.7 µM

IC50 (CDK9/cyclin T),IC50 (CDK2/cyclin E),SMILES,IC50 ([1]; Homo sapiens),IC50 ([2]; Homo sapiens),IC50 ([3]; Homo sapiens),other results
–,–,CCn1cnc2c(NCc3cc(Cl)ccc3O)nc(NC3CCCCC3N)nc21 (stereo not shown) [Compound 47],–,–,–,IC50 [1]: 41 µM; IC50 [2]: 55 µM; IC50 [3]: 32 µM
0.01 µM,0.06 µM,CCC(CC)n1cnc2c(NCc3cc(F)ccc3O)nc(NC3CCC(N)CC3)nc21 (stereo not shown) [compound 227],–,–,–,–
0.12 µM,0.13 µM,CCC(CO)Nc1nc(NCc2cc(Cl)ccc2O)c2ncn(CC)c2n1 (stereo not shown) [Compound 50],44 µM,58 µM,38 µM,–
0.03 µM,0.05 µM,CC(C)n1cnc2c(NCc3cc(Cl)ccc3O)nc(NC3CCCCC3N)nc21 (stereo not shown) [Compound 76],4.1 µM,9.9 µM,2.8 µM,–
0.01 µM,0.04 µM,CC(C)n1cnc2c(NCc3cc(Cl)ccc3O)nc(NC(C)C(C)(C)O)nc21 (stereo not shown) [Compound 82],–,–,–,–
0.01 µM,0.04 µM,CC(C)n1cnc2c(NCc3cc(Cl)ccc3O)nc(NC3CCC(N)CC3)nc21 (stereo not shown) [Compound 77],–,–,–,–
0.03 µM,0.05 µM,COc1cccc(CNc2nc(NC3CCC(O)CC3)nc3c2ncn3C(C)C)c1O (stereo not shown) [Compound 136],–,–,–,–
0.06 µM,0.08 µM,COc1cccc(CNc2nc(NCC(C)O)nc3c2ncn3C(C)C)c1O (stereo not shown) [Compound 127],–,–,–,–
0.15 µM,0.27 µM,Cn1cnc2c(NCc3cc(Cl)ccc3O)nc(NC3CCC(N)CC3)nc21 (stereo not shown) [Compound 2],64 µM,82 µM,46 µM,–
–,–,"CC[C@H](CO)Nc1nc(NCc2ccccc2O)c2ncn(C(C)C)c2n1 [OCII, olomoucine II, reference compound]",–,–,–,p53 (effect): induction of p53 protein (p53): ++; p53 (peak concentration in μM) (p53): 12.0 µM
0.06 µM,0.09 µM,CCC(CO)Nc1nc(NCc2cc(Cl)ccc2O)c2ncn(C(CC)CC)c2n1 (stereo not shown) [compound 224],7.2 µM,15.6 µM,5.5 µM,–
0.19 µM,0.26 µM,COc1cccc(CNc2nc(NC3CCCCC3N)nc3c2ncn3C)c1O (stereo not shown) [Compound 31],45 µM,60 µM,36 µM,–
0.12 µM,0.3 µM,CCC(CO)Nc1nc(NCc2cc(Cl)ccc2O)c2ncn(C)c2n1 (stereo not shown) [Compound 3],71 µM,84 µM,55 µM,–
0.07 µM,0.08 µM,CC(C)n1cnc2c(NCc3cc(O)ccc3O)nc(NC3CCCCC3N)nc21 (stereo not shown) [Compound 121],–,–,–,–
0.04 µM,–,CCC(CO)Nc1nc(NCc2cccc(C)c2O)c2ncn(C(C)C)c2n1 (stereo not shown) [Compound 101],–,–,–,–
0.09 µM,0.17 µM,CCC(CO)Nc1nc(NCc2ccc(OC)cc2O)c2ncn(CC)c2n1 (stereo not shown) [Compound 73],–,–,–,–
0.16 µM,0.27 µM,CCC(CO)Nc1nc(NCc2cccc(OC)c2O)c2ncn(C)c2n1 (stereo not shown) [Compound 34],–,–,–,–
–,–,CC(C)C(CO)Nc1nc(NCc2cccc(O)c2O)c2ncn(C(C)C)c2n1 (stereo not shown) [Compound 114],–,–,–,p53 (effect): induction of p53 protein (p53): ++; p53 (peak concentration in μM) (p53): 12.0 µM
–,–,CCC(CC)n1cnc2c(NCc3cc(F)ccc3O)nc(NC3CCCCC3N)nc21 (stereo not shown) [compound 226],–,–,–,IC50 [1]: 4.3 µM; IC50 [2]: 12.4 µM; IC50 [3]: 4.1 µM

SMILES,IC50 (CDK9/cyclin T),IC50 (CDK2/cyclin E),IC50 ([1]; Homo sapiens),IC50 ([2]; Homo sapiens),IC50 ([3]; Homo sapiens),other results
CCC(CC)n1cnc2c(NCc3cccc(OC)c3O)nc(NC3CCCCC3N)nc21 (stereo not shown) [compound 238],0.04 µM,0.06 µM,–,–,–,–
CCC(CC)n1cnc2c(NCc3cc(Cl)ccc3O)nc(NC3CCCCC3N)nc21 (stereo not shown) [compound 223],0.05 µM,0.08 µM,–,–,–,IC50 [1]: 6.8 µM; IC50 [2]: 17.6 µM; IC50 [3]: 4.8 µM
